Read-outs that look alike come from different tables or passages of the source.
Legend:
FGFR2 = biological target: T1, FGFR2 (Homo sapiens, UniProt P21802); assay: Isolated enzyme FRET-based Z-Lyte kinase inhibition assay; assay type: biochemical; settings: means from 3 independent experiments; read-out: Isolate Enzyme Inhibition IC50, FGFR2
T1 construct: purchased Invitrogen
Protocol: (§1) FGFR1-4 and the Z-Lyte Kinase Assay Kit were purchased from Invitrogen. The concentration gradients from 5.1×10^−11 to 1.0×10^−6 mol/L were used for all the test compounds. The experiments were performed according to the instructions of the manufacturer.
(§2) FGFR1-4 isolated enzyme activity was determined using the FRET-based Z-Lyte kinase inhibition assay. The data are the means from 3 independent experiments.

FGFR3 = biological target: T2, FGFR3 (Homo sapiens, UniProt P22607); assay: as above; assay type: biochemical; settings: means from 3 independent experiments; read-out: Isolate Enzyme Inhibition IC50, FGFR3
T2 construct: purchased Invitrogen
T2 sequence (P22607 23-806): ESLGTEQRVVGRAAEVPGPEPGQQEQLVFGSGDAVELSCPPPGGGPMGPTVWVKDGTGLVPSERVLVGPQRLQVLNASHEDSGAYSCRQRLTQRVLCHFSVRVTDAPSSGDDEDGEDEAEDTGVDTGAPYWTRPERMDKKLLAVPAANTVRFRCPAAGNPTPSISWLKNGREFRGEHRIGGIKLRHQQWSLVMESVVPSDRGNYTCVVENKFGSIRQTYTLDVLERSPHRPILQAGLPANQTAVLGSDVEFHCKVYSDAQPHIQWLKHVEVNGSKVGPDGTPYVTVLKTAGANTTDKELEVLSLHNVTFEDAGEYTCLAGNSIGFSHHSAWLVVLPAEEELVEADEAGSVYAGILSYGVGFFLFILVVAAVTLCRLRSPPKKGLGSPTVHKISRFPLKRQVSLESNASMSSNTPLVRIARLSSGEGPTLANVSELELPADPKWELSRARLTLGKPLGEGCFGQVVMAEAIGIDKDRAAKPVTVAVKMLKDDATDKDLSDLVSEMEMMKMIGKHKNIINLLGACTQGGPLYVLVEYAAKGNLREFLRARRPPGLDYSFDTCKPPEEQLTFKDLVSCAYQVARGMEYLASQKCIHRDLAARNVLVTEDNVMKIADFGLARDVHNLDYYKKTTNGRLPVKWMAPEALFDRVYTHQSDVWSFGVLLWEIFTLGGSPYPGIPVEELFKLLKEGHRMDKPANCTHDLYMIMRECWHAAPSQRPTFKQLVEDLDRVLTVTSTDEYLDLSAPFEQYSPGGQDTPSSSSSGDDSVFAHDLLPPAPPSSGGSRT
Protocol: as §1, §2

FGFR4 = biological target: T3, FGFR4 (Homo sapiens, UniProt P22455); assay: as above; assay type: biochemical; settings: means from 3 independent experiments; read-out: Isolate Enzyme Inhibition IC50, FGFR4
T3 construct: purchased Invitrogen
T3 sequence (P22455 22-802): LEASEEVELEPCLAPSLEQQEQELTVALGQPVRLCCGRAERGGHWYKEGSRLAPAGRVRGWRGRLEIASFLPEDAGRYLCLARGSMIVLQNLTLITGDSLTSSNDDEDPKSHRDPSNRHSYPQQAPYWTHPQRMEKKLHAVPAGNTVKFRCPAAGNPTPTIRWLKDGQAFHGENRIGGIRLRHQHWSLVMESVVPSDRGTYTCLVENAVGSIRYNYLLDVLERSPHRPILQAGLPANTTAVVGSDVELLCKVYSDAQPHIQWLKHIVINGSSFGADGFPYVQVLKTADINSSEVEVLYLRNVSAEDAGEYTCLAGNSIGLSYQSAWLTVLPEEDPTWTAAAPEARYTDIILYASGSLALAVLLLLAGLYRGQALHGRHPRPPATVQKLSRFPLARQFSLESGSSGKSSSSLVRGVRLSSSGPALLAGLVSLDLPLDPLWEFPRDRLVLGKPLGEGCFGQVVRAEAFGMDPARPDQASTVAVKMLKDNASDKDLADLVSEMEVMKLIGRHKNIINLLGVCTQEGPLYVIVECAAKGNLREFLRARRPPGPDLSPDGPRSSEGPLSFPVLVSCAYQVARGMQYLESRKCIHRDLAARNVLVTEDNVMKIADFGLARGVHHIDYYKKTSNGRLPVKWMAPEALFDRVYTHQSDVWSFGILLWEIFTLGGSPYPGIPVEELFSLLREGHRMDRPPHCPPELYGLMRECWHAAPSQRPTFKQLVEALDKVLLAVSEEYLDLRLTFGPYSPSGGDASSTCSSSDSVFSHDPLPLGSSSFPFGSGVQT
Protocol: as §1, §2

[1] = test system: FGFR2-amplified SUM52 breast cancer cells; assay: Cell proliferation assay (SRB); assay type: cell-based; settings: SUM52, 120 h, read-out: Cellular Anti-proliferative IC50, SUM52, 5 days drug exposure
[2] = test system: FGFR4-amplified Hep3B hepatocellular carcinoma cells; assay: Cell proliferation assay (SRB); assay type: cell-based; settings: Homo sapiens, Hep3B; read-out: Cellular Anti-proliferative IC50, Hep3B
[3] = test system: FGFR1 in H520 cells (phospho-ERK1/2); assay: Drug washout Western blot assay, H520 cells; assay type: cell-based; settings: for phospho-ERK1/2 after extensive drug washout: washout prior to FGF-stimulation
[4] = test system: FGFR2 in SUM52 cells (phospho-ERK1/2); assay: Drug washout Western blot assay, SUM52 cells; assay type: cell-based; settings: for inhibition of phosphorylation of ERK1/2, no washout / phospho-ERK1/2 after extensive drug washout: 30 min; for inhibition of phosphorylation of ERK1/2, no washout: then FGF-stimulation; for phospho-ERK1/2 after extensive drug washout: washout prior to FGF-stimulation
Protocol: Cells were seeded on the day prior to drug treatment (1 million cells/well; 6-well plate).
Drug stocks were prepared in media using 1 mM or 10 mM DMSO stock solutions. Media was aspirated from each well and replaced with 2 ml of drug-free media for control wells or 2 ml of diluted drug for treated wells. Cells were exposed to drug for 30 min. Recombinant FGF (50 ng/well) was added to each well 15 minutes prior to the end of the drug exposure and protein was extracted as below.
Cells were exposed to drug for 30 min as above. Media was aspirated and each well was washed with 5 ml drug-free media. The wash media was aspirated and replaced with 2 ml drug-free media and cells incubated for a further 30 minutes, after which the wash protocol was repeated. Cells were incubated for a further 90 minutes in drug-free media. Recombinant FGF (50 ng/well) was added to each well 15 minutes prior to the end of the drug-free incubation and protein was extracted as below.
Cell lysates were prepared in 250 μL of RIPA lysis buffer containing protease inhibitor (1:100). After incubation on ice (30 min) and centrifugation (13,000 rpm, 5 min, 4° C.) the supernatants containing the proteins were stored (−20° C.) until required. Bicinchoninic acid (BCA) assay was used to determine the protein concentration of individual cell lysate samples.

[5] = test system: FGFR3 in SW780 cells (phospho-ERK1/2); assay: Drug washout Western blot assay, SW780 cells; assay type: cell-based; settings: for inhibition of phosphorylation of ERK1/2, no washout / phospho-ERK1/2 after extensive drug washout / reversible or irreversible inhibition of FGFR3 in cells: SW780; for inhibition of phosphorylation of ERK1/2, no washout / phospho-ERK1/2 after extensive drug washout: 30 min; for inhibition of phosphorylation of ERK1/2, no washout: then FGF-stimulation; for phospho-ERK1/2 after extensive drug washout: washout prior to FGF-stimulation; for reversible or irreversible inhibition of FGFR3 in cells: with and without washout
[6] = test system: FGFR3-amplified SW780 bladder cancer cells; assay: Cell proliferation assay (SRB); settings: Homo sapiens, SW780, 120 h
FGFR1 = biological target: T4, FGFR1 (Homo sapiens, UniProt P11362); assay: Isolated enzyme FRET-based Z-Lyte kinase inhibition assay; assay type: biochemical; settings: means from 3 independent experiments; read-out: Isolate Enzyme Inhibition IC50, FGFR1
T4 construct: purchased Invitrogen
T4 sequence (P11362 22-822): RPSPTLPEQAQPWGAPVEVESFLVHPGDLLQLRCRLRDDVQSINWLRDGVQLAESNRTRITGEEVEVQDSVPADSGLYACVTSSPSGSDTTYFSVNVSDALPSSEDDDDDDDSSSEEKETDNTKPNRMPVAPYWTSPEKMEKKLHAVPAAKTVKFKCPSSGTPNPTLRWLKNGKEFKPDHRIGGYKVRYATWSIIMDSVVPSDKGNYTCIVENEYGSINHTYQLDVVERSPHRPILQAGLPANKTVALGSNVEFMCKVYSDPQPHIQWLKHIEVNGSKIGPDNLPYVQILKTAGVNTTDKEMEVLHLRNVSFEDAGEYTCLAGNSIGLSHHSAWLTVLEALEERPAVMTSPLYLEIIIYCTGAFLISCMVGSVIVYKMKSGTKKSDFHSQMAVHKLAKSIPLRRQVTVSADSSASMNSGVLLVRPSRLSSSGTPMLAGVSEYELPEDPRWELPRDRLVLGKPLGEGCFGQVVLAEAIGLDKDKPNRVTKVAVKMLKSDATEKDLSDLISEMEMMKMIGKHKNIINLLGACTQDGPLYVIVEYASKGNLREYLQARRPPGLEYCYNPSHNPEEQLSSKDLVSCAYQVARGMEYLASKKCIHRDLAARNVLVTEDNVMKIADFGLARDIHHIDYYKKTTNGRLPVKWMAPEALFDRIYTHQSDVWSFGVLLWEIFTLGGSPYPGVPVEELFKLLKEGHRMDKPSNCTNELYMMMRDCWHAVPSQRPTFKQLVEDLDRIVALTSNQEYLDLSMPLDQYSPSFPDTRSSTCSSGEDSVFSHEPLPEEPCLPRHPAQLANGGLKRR
Protocol: as §1, §2

[7] = test system: FGFR1-amplified H520 non-small cell lung cancer cells; assay: Cell proliferation assay (SRB); assay type: cell-based; settings: Homo sapiens, NCI-H520, 168 h, read-out: Cellular Anti-proliferative IC50, H520
[8] = biological target: T5, recombinant FGFR1 (C584S) kinase domain (Homo sapiens, UniProt P11362, C584S); assay: FGFR1 (C584S) covalent binding protein mass spectrometry assay; settings: protein:inhibitor 1:10, 37° C.
T5 construct: made in house; host or cells: pETDuet vector, IPTG induction in Terrific Broth (bacterial)
T5 sequence (P11362 with tags, fused parts or gaps C584S): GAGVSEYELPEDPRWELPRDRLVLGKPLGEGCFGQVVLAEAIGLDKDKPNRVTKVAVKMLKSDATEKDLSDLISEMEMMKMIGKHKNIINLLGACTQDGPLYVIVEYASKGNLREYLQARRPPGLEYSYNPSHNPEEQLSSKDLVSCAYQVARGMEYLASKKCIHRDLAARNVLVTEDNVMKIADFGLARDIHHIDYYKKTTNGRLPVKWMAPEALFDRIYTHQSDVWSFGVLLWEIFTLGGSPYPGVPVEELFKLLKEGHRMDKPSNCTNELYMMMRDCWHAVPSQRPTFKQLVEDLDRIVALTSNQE
Protocol: The previously cloned C488A/C584S FGFR1 construct was modified by site-directed mutagenesis to provide a gene encoding the C584S FGFR1 kinase domain with the cysteine at amino acid C488 reinstated. Expression and purification of this protein followed the protocol described above but with the addition of 10% glycerol to all buffers and a change of buffer pH to a value of 8.5. Protein for mass spectrometry was concentrated to ˜40 mg/ml and was mixed 1:1 (v/v) with glycerol, and then frozen at −20° C. or flash cooled in liquid nitrogen and stored at −80° C. until needed.
Protein samples were buffer exchanged to remove glycerol (the final buffer comprised 20 mM Tris-HCl pH 8.5, 10% (v/v) glycerol, 20 mM NaCl, 5 mM EDTA, 2 mM TCEP) and were mixed with each inhibitor at 1:10 molar ratio (protein:inhibitor). Final protein concentration was 20 μM. […] Samples were mixed with 90 μL of 0.1% formic acid to quench the reaction followed by flash cooling in liquid nitrogen. Samples were stored at −80° C. until needed. All experiments were carried out in triplicate.
Samples were subjected to liquid chromatography mass spectrometry (LC-MS) to show mass changes attributable to irreversible inhibition. Mass spectrometry experiments were performed at the University of Auckland Mass Spectrometry Center using an electropspray QSTAR® XL ESI quadrupole Time-of-Flight (QToF) MS system (Applied Biosystems) operated in positive ionization mode. The instrument was calibrated using Renin Substrate Standard (SCIEX), over the m/z range 100-2000. Protein/inhibitor samples were thawed and 2 μL volumes injected into a liquid chromatography (LC) BIOshell™ A400 Protein C4 HPLC column (10 cm×2.1 mm, 3.4 μm) attached to the mass spectrometer. […] Following elution, samples were directly injected into the mass spectrometer for separation and mass analysis. Mass spectrometry data were processed and analysed using the PeakView™ 2.1 software and the Bio Tool Kit plug-in (SCIEX) and covered an m/z range of 330-1600. Deconvolution calculations allowed visualisation of intact mass protein peaks and allowed peak area measurement to assess the percentage of protein covalently modified by each inhibitor at each time point. Data was plotted using GraphPad Prism 7 (GraphPad).

T1 sequence (P21802 22-821): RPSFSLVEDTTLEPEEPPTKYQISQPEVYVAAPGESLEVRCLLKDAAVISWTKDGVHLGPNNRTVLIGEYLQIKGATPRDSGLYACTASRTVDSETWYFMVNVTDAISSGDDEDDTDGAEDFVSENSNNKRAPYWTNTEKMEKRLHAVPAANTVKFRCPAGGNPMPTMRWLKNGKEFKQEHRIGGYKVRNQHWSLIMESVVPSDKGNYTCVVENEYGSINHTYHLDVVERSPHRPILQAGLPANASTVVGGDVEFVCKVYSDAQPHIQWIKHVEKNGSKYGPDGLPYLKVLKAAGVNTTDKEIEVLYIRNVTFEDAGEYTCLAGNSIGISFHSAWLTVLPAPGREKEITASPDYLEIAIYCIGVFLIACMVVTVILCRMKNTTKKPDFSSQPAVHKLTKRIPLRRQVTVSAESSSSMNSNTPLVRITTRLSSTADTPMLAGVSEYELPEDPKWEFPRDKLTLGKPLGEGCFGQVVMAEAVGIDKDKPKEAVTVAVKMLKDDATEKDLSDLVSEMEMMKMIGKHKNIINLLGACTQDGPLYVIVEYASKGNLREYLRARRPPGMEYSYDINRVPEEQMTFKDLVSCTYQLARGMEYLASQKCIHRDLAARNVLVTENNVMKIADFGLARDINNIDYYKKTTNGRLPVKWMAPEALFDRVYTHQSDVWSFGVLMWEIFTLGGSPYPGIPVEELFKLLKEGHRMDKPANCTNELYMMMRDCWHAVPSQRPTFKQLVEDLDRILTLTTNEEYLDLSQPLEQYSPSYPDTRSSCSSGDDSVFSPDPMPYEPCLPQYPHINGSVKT

| Structure (SMILES) | % Conversion to FGFR1 (C584S) covalent adduct after 120 minutes incubation [8] [%] | IC50 (FGFR2) [nM] | IC50 (FGFR3) [nM] | IC50 (FGFR4) [nM] | IC50 [1] [nM] | IC50 [2] [nM] | phospho-ERK1/2 after extensive drug washout ([3]; H520, 100 nM, 30 min) | phospho-ERK1/2 after extensive drug washout ([3]; H520, 1000 nM, 30 min) | inhibition of phosphorylation of ERK1/2, no washout ([4]; SUM52, 100 nM) | phospho-ERK1/2 after extensive drug washout ([4]; SUM52, 100 nM) | phospho-ERK1/2 after extensive drug washout ([4]; SUM52, 1000 nM) | inhibition of phosphorylation of ERK1/2, no washout ([5]; 100 nM) | phospho-ERK1/2 after extensive drug washout ([5]; 100 nM) | phospho-ERK1/2 after extensive drug washout ([5]; 1000 nM) | further results |
| --- | --- | --- | --- | --- | --- | --- | --- | --- | --- | --- | --- | --- | --- | --- | --- |
| CNc1ncc2c(n1)N([C@H]1CCN(C(=O)/C=C/CN(C)C)C1)C(=O)N(c1c(Cl)c(OC)cc(OC)c1Cl)C2 [Compound 103, (S,E)-3-(2,6-dichloro-3,5-dimethoxyphenyl)-1-(1-(4-(dimethylamino)but-2-enoyl)pyrrolidin-3-yl)-7-(methylamino)-3,4-dihydropyrimido[4,5-d]pyrimidin-2(1H)-one] | – | 3.3 | 17 | 287 | 4.8 | 48 | restoration | restoration | complete inhibition | restoration | restoration | complete inhibition | restoration | restoration | reversible or irreversible inhibition of FGFR2 in cells ([4]; SUM52, 30 min exposure, 100 nM, with and without washout): reversible inhibitor; reversible or irreversible inhibition of FGFR3 in cells ([5]; 30 min exposure, 100 nM): reversible inhibitor; IC50 ([6]; read-out: Cellular Anti-proliferative IC50, SW780, 5 days drug exposure): 31 nM |
| COc1cc(OC)c(Cl)c(N2Cc3cnc(NC(C)C)nc3N([C@H]3CCN(C(=O)/C=C/CN(C)C)C3)C2=O)c1Cl [Compound 104, (S,E)-3-(2,6-dichloro-3,5-dimethoxyphenyl)-1-(1-(4-(dimethylamino)but-2-enoyl)pyrrolidin-3-yl)-7-(isopropylamino)-3,4-dihydropyrimido[4,5-d]pyrimidin-2(1H)-one] | 8 | 23 | 35 | 906 | 1.4 | 12 | restoration | essential full inhibition | complete inhibition | restoration | essential full inhibition | complete inhibition | restoration | essential full inhibition | IC50 (FGFR1): 1.1 nM; IC50 [7]: 17 nM; exposure concentration for irreversible inhibition (fully covalently bind the target) in cells ([3]; H520 (FGFR1), 30 minute exposure): 1000 nM; inhibition of phosphorylation of ERK1/2, no washout ([3]; H520, 100 nM, 30 min, then FGF-stimulation): complete inhibition; reversible or irreversible inhibition of FGFR1 in cells ([3]; H520, 2 hours exposure, 100, 300 and 600 nM, with and without washout): potent, irreversible inhibition; concentration required to suppress FGFR1 signalling through phospho-ERK1/2 ([3]; H520, 2 hours exposure, tested at 100, 300 and 600 nM): 300 nM; exposure concentration for irreversible inhibition (fully covalently bind the target) in cells ([4]; SUM52 (FGFR2), 30 minute exposure): 1000 nM; exposure concentration for irreversible inhibition (fully covalently bind the target) in cells ([5]; SW780 (FGFR3), 30 minute exposure): 1000 nM; reversible or irreversible inhibition of FGFR3 in cells ([5]; 120 minutes exposure, 100 nM): reversible; IC50 ([6]; read-out: Cellular Anti-proliferative IC50, SW780): 11 nM |
| COc1cc(OC)c(Cl)c(N2Cc3cnc(Nc4ccc(N5CCOCC5)cc4)nc3N(C3CCN(C(=O)/C=C/CN(C)C)CC3)C2=O)c1Cl [Compound 129, (E)-3-(2,6-dichloro-3,5-dimethoxyphenyl)-1-(1-(4-(dimethylamino)but-2-enoyl)piperidin-4-yl)-7-((4-morpholinophenyl)amino)-3,4-dihydropyrimido[4,5-d]pyrimidin-2(1H)-one] | 46 | – | – | – | – | – | – | – | – | – | – | – | – | – | – |

The next lines start with results.

| % Conversion to FGFR1 (C584S) covalent adduct after 120 minutes incubation [8] [%] | Structure (SMILES) | IC50 (FGFR2) [nM] | IC50 (FGFR3) [nM] | IC50 (FGFR4) [nM] | IC50 [1] [nM] | IC50 [2] [nM] | phospho-ERK1/2 after extensive drug washout ([3]; H520, 100 nM, 30 min) | phospho-ERK1/2 after extensive drug washout ([3]; H520, 1000 nM, 30 min) | inhibition of phosphorylation of ERK1/2, no washout ([4]; SUM52, 100 nM) | phospho-ERK1/2 after extensive drug washout ([4]; SUM52, 100 nM) | phospho-ERK1/2 after extensive drug washout ([4]; SUM52, 1000 nM) | inhibition of phosphorylation of ERK1/2, no washout ([5]; 100 nM) | phospho-ERK1/2 after extensive drug washout ([5]; 100 nM) | phospho-ERK1/2 after extensive drug washout ([5]; 1000 nM) | further results |
| --- | --- | --- | --- | --- | --- | --- | --- | --- | --- | --- | --- | --- | --- | --- | --- |
| 48 | COc1cc(OC)c(Cl)c(N2Cc3cnc(Nc4ccccc4)nc3N(C3CCN(C(=O)/C=C/CN(C)C)CC3)C2=O)c1 [Compound 128, (E)-3-(2-chloro-3,5-dimethoxyphenyl)-1-(1-(4-(dimethylamino)but-2-enoyl)piperidin-4-yl)-7-(phenylamino)-3,4-dihydropyrimido[4,5-d]pyrimidin-2(1H)-one] | – | – | – | – | – | – | – | – | – | – | – | – | – | – |
| 46 | COc1cc(OC)c(Cl)c(N2Cc3cnc(Nc4ccc(N5CCOCC5)cc4)nc3N(C3CCN(C(=O)/C=C/CN(C)C)CC3)C2=O)c1 [Compound 130, (E)-3-(2-chloro-3,5-dimethoxyphenyl)-1-(1-(4-(dimethylamino)but-2-enoyl)piperidin-4-yl)-7-((4-morpholinophenyl)amino)-3,4-dihydropyrimido[4,5-d]pyrimidin-2(1H)-one] | – | – | – | – | – | – | – | – | – | – | – | – | – | – |
| 39 | COc1cc(OC)cc(N2Cc3cnc(Nc4ccc(N5CCOCC5)cc4)nc3N(C3CCN(C(=O)/C=C/CN(C)C)CC3)C2=O)c1 [Compound 131, (E)-3-(3,5-dimethoxyphenyl)-1-(1-(4-(dimethylamino)but-2-enoyl)piperidin-4-yl)-7-((4-morpholinophenyl)amino)-3,4-dihydropyrimido[4,5-d]pyrimidin-2(1H)-one] | – | – | – | – | – | – | – | – | – | – | – | – | – | – |
